Measured values: patent publication US4212866A, “Pharmaceutically active derivatives of 9-[3-(4-amino-piperidino)-propyl]-adenines” (Boehringer Mannheim GmbH, priority 1978, dated 1980)

Tested on: passive cutaneous anaphylactic reaction
Experiment: inhibition of the passive cutaneous anaphylactic (PCA) reaction in rats induced by reaginic antibodies to egg albumin
Assay type: in vivo
Conditions: Rattus norvegicus, iv, 0.75 mg/kg, intravenously immediately before antigen
Protocol: Diethylcarbamazin, i.e. 1-diethylcarbamoyl-4-methylpiperazine, was used as a comparison compound. Specifically, tests were run as follows:
Serum containing reaginic (IgE-like) antibody to egg albumin was prepared by injecting rats intramuscularly with 0.1 ml of a solution of the antigen (10 mg/ml) in saline together with 0.5 ml of Bordetella pertussis vaccine (Behring; 2×10^10 organisms/ml). 9-14 Days later the animals were bled from the abdominal aorta; the serum was pooled and stored at -20° C. until required. The titer of the serum, i.e. the highest dilution inducing passive cutaneous anaphylaxis (PCA) in the rat following a 48-hour latent period, was between 1:8 and 1:32. For use in these experiments the serum was diluted 1:24.
The animals were anesthetized with 2,2-dichloro-1,1-difluoroethyl-methyl ether, sold under the trademark Penthrane, and were sensitized by injecting 0.1 ml of the antiserum into the shaved abdominal flanks. After 48 hours for reaginic PCA, the animals were given an intravenous injection of 1 ml of saline solution containing 0.5% by weight of egg albumin and 0.25% by weight of Evans Blue.
After having killed and exsanguinated the animals, the size in square millimeters and the intensity, in arbitary scores, of the resulting blue spot were determined. The product of these two parameters was used to determine the degree of the reaction and the degree of reaction with no active material was taken as the standard against which to measure % inhibition of the anaphylactic reaction.
6 Animals were used per dose level and for control.
The test material was injected intravenously immediately before the antigen, using a solution in water containing 0.5% HCl and 2% of dimethylformamide. For comparative purposes there was also tested diethylcarbamoyl-4-methylpiperazine sold under the tradename Diethylcarbamazin. The volumes of the injections were varied to give the indicated dosage of the active material. The results obtained were as follows:
PCA Reaction in Rats Induced by Reaginic Antibodies
(Ovalbumin 2×cryst, and Bord. pertussis 2×10^10) Active material applied intravenously immediately before antigen.

SMILES | inhibition in vivo at 0.75 mg/kg
O=C(NC1CCN(CCCn2cnc3c(NCCO)ncnc32)CC1)c1ccccc1 [Example 2j, N^6-(2-Hydroxyethyl)-9-[3-(4-benzamido-piperidino)-propyl] adenine] | 44%
CCCCNc1ncnc2c1ncn2CCCN1CCC(NC(=O)c2ccccc2)CC1 [Example 2k, N^6-n-Butyl-9-[3-(4-Benzamido-piperidino)-propyl]-adenine] | 41%

Same assay, conditions: Rattus norvegicus, iv, 1.5 mg/kg, intravenously immediately before antigen

SMILES | inhibition in vivo at 1.5 mg/kg
Nc1ncnc2c1ncn2CCCN1CCC(NC(=O)c2ccc(F)cc2)CC1 [Example 2b, 9-{3-[4-(4-Fluorobenzamido)-piperidino]-propyl}-adenine] | 65%
Cc1ccccc1C(=O)NC1CCN(CCCn2cnc3c(N)ncnc32)CC1 [Example 2e, 9-{3-[4-(2-Methyl-benzamido)-piperidino]-propyl}-adenine] | 39%
Cc1ccc(C(=O)NC2CCN(CCCn3cnc4c(N)ncnc43)CC2)cc1 [Example 2f, 9-{-[4-(4-Methyl-benzamido)-piperidio]-propyl}-adenine] | 74%
CN(C)c1ncnc2c1ncn2CCCN1CCC(NC(=O)c2ccccc2)CC1 [Example 2l, 6-Dimethylamino-9-[3-(4-benzamido-piperidino)-propyl]-purine] | 43%
O=C(NC1CCN(CCCn2cnc3c(N4CCCCC4)ncnc32)CC1)c1ccccc1 [Example 2m, 6-Piperidino-9-[3-(4-benzamido-piperidino)-propyl]-purine] | 36%
Nc1ncnc2c1ncn2CCCN1CCC(NC(=O)c2ccc(Cl)cc2)CC1 [Example 4a, 9-{3-[4-(4-Chlorobenzamido)-piperidino]-propyl}-adenine] | 80%
Nc1ncnc2c1ncn2CCCN1CCC(NC(=O)Cc2ccccc2)CC1 [Example 4d, 9-{3-[4-(Phenyl-acetamido)-piperidino]-propyl}-adenine] | 30%
Nc1ncnc2c1ncn2CCCN1CCC(NC(=O)c2ccco2)CC1 [Example 4f, 9-{3-[4-(Furan-2-carbonylamido)-piperidino]-propyol}-adenine] | 44%

Same assay, conditions: Rattus norvegicus, iv, 60.0 mg/kg, intravenously immediately before antigen

SMILES | inhibition in vivo at 60 mg/kg
CCN(CC)C(=O)N1CCN(C)CC1 [Diethylcarbamazin, 1-diethylcarbamoyl-4-methylpiperazine, reference compound] | 58%
